Source: patent publication US5843900A (priority 1995, dated 1998)
Square brackets hold non-standard residues; d marks the D form. Peptide text beside a SMILES is read from it. * marks the point of attachment. X21 = CN1CC[C@]23c4c5ccc(OCCCCCCCCCCCC(=O)*)c4O[C@H]2[C@@H](O)CC[C@H]3[C@H]1C5; Hyp = O=C(O)[C@@H]1C[C@@H](O)CN1; dTic = O=C(O)[C@H]1Cc2ccccc2CN1; 2Thi = N[C@@H](Cc1cccs1)C(=O)O; Gly(N-cHex) = O=C(O)CNC1CCCCC1

How the values were obtained:
[1] = target: human BK2 receptor (Homo sapiens, UniProt P30411); test: biochemical; type: binding
[2] = tested on: paw licking following formalin injection; conditions: mouse, in vivo
[3] = tested on: carrageenan induced edema in the rat hind paw; conditions: in vivo
[4] = tested on: mustard oil induced neurogenic inflammation in the rat hind paw; conditions: in vivo
[5] = tested on: hypotensive response to bradykinin; test: Rat Blood Pressure: hypotensive response to bradykinin; type: in vivo; conditions: at the dose used in the carrageenan test
Experimental: Male rats were anesthetised with urethane, 1.25 g/kg, and cannulae were placed in the carotid artery and femoral vein for the injection and infusion of compounds and in the femoral artery for the recording of blood pressure. Standard hypotensive responses were obtained to repeated administration of bradykinin, 80 pM. These were repeated in the presence of increasing dose infusions of CP-0840. […] The selectivity of CP-0840 was assessed at a dose of 3 ug/kg/min. […] CP-0840 can be said to be a selective antagonist of bradykinin in vivo in the rat blood pressure assay (FIG. 9).

human BK2 receptor, sequence (P30411 28-391): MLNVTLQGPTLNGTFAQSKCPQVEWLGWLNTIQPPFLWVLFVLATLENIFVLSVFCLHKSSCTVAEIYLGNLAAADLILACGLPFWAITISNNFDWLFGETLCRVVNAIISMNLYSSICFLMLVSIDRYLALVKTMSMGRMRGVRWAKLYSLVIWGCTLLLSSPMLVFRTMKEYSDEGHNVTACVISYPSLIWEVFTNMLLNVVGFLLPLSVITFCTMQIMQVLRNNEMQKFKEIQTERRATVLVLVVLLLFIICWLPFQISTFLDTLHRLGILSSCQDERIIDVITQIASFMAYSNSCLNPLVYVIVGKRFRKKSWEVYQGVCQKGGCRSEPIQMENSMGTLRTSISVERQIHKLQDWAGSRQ

How did the IC50 [1] turn out when CN1CC[C@]23c4c5ccc(OCCCCCCCCCCCC(=O)N[C@H](CCCNC(=N)N)C(=O)N[C@@H](CCCNC(=N)N)C(=O)N6CCC[C@H]6C(=O)N6C[C@H](O)C[C@H]6C(=O)NCC(=O)N[C@@H](Cc6cccs6)C(=O)N[C@@H](CO)C(=O)N6Cc7ccccc7C[C@@H]6C(=O)N(CC(=O)N[C@@H](CCCNC(=N)N)C(=O)O)C6CCCCC6)c4O[C@H]2[C@@H](O)CC[C@H]3[C@H]1C5 [CP 695] was run?
Its IC50 is 1.26 nM.

Which IC50 [1] does the source give for CN1CC[C@]23c4c5ccc(OCCCCCCCCCCCC(=O)NCCCC[C@H](NC(=O)[C@H](N)CCCNC(=N)N)C(=O)N6CCC[C@H]6C(=O)N6C[C@H](O)C[C@H]6C(=O)NCC(=O)N[C@@H](Cc6cccs6)C(=O)N[C@@H](CO)C(=O)N6Cc7ccccc7C[C@@H]6C(=O)N(CC(=O)N[C@@H](CCCNC(=N)N)C(=O)O)C6CCCCC6)c4O[C@H]2[C@@H](O)CC[C@H]3[C@H]1C5 [CP 723] (H-[dR]K(X21)P[Hyp]G[2Thi]S[dTic][Gly(N-cHex)]R-OH) here?
The IC50 was 0.398 nM.

For CN1CC[C@]23c4c5ccc(OCCCCCCCCCCCC(=O)NCCCC[C@H](NC(=O)CNC(=O)[C@@H]6C[C@@H](O)CN6C(=O)[C@@H]6CCCN6C(=O)[C@H](CCCNC(=N)N)NC(=O)[C@H](N)CCCNC(=N)N)C(=O)N[C@@H](CO)C(=O)N6Cc7ccccc7C[C@@H]6C(=O)N(CC(=O)N[C@@H](CCCNC(=N)N)C(=O)O)C6CCCCC6)c4O[C@H]2[C@@H](O)CC[C@H]3[C@H]1C5 [CP 831] (H-[dR]RP[Hyp]GK(X21)S[dTic][Gly(N-cHex)]R-OH), which IC50 [1] is on record?
Its IC50 is 126 nM.

CN1CC[C@]23c4c5ccc(OCc6ccc(C(=O)NCCC(=O)Nc7ccc(CC(=O)N[C@H](CCCNC(=N)N)C(=O)N[C@@H](CCCNC(=N)N)C(=O)N8CCC[C@H]8C(=O)N8C[C@H](O)C[C@H]8C(=O)NCC(=O)N[C@@H](Cc8cccs8)C(=O)N[C@@H](CO)C(=O)N8Cc9ccccc9C[C@@H]8C(=O)N(CC(=O)N[C@@H](CCCNC(=N)N)C(=O)O)C8CCCCC8)cc7)cc6)c4O[C@H]2[C@@H](O)C=C[C@H]3[C@H]1C5 [CP 836] was tested. Which IC50 [1] did it give?
Its IC50 is 1.26 nM.

With CN1CC[C@]23c4c5ccc(OCCCCCCCCCCCC(=O)NCCCC[C@H](NC(=O)[C@@H]6CCCN6C(=O)[C@H](CCCNC(=N)N)NC(=O)[C@H](N)CCCNC(=N)N)C(=O)NCC(=O)N[C@@H](Cc6cccs6)C(=O)N[C@@H](CO)C(=O)N6Cc7ccccc7C[C@@H]6C(=O)N(CC(=O)N[C@@H](CCCNC(=N)N)C(=O)O)C6CCCCC6)c4O[C@H]2[C@@H](O)CC[C@H]3[C@H]1C5 [CP 841] (H-[dR]RPK(X21)G[2Thi]S[dTic][Gly(N-cHex)]R-OH) as the compound, how does the IC50 [1] read?
The IC50 was 12.6 nM.

With CN1CC[C@]23c4c5ccc(OCCCCCCCCCCCCCCC(=O)N[C@H](CCCNC(=N)N)C(=O)N[C@@H](CCCNC(=N)N)C(=O)N6CCC[C@H]6C(=O)N6C[C@H](O)C[C@H]6C(=O)NCC(=O)N[C@@H](Cc6cccs6)C(=O)N[C@@H](CO)C(=O)N6Cc7ccccc7C[C@@H]6C(=O)N(CC(=O)N[C@@H](CCCNC(=N)N)C(=O)O)C6CCCCC6)c4O[C@H]2[C@@H](O)CC[C@H]3[C@H]1C5 [CP 844] as the compound, how does the IC50 [1] read?
Its IC50 is 3.16 nM.

CN1CC[C@]23c4c5ccc(OCCCCCCCCCCCC(=O)NCCCC[C@H](NC(=O)[C@H](CCCNC(=N)N)NC(=O)[C@H](N)CCCNC(=N)N)C(=O)N6C[C@H](O)C[C@H]6C(=O)NCC(=O)N[C@@H](Cc6cccs6)C(=O)N[C@@H](CO)C(=O)N6Cc7ccccc7C[C@@H]6C(=O)N(CC(=O)N[C@@H](CCCNC(=N)N)C(=O)O)C6CCCCC6)c4O[C@H]2[C@@H](O)CC[C@H]3[C@H]1C5 [CP 851] (H-[dR]RK(X21)[Hyp]G[2Thi]S[dTic][Gly(N-cHex)]R-OH) was tested. Which IC50 [1] did it give?
The IC50 was 39.8 nM.

How did the IC50 [1] turn out when CN1CC[C@]23c4c5ccc(OCCCCCCCCCCCC(=O)NCCCC[C@H](NC(=O)[C@@H]6C[C@@H](O)CN6C(=O)[C@@H]6CCCN6C(=O)[C@H](CCCNC(=N)N)NC(=O)[C@H](N)CCCNC(=N)N)C(=O)N[C@@H](Cc6cccs6)C(=O)N[C@@H](CO)C(=O)N6Cc7ccccc7C[C@@H]6C(=O)N(CC(=O)N[C@@H](CCCNC(=N)N)C(=O)O)C6CCCCC6)c4O[C@H]2[C@@H](O)CC[C@H]3[C@H]1C5 [CP 853] (H-[dR]RP[Hyp]K(X21)[2Thi]S[dTic][Gly(N-cHex)]R-OH) was run?
Its IC50 is 63.1 nM.

Which IC50 [1] does the source give for CN1CC[C@]23c4c5ccc(OCc6cccc(C(=O)NCCC(=O)Nc7ccc(CC(=O)N[C@H](CCCNC(=N)N)C(=O)N[C@@H](CCCNC(=N)N)C(=O)N8CCC[C@H]8C(=O)N8C[C@H](O)C[C@H]8C(=O)NCC(=O)N[C@@H](Cc8cccs8)C(=O)N[C@@H](CO)C(=O)N8Cc9ccccc9C[C@@H]8C(=O)N(CC(=O)N[C@@H](CCCNC(=N)N)C(=O)O)C8CCCCC8)cc7)c6)c4O[C@H]2[C@@H](O)C=C[C@H]3[C@H]1C5 [CP 862] here?
The IC50 was 1 nM.

How did the IC50 [1] turn out when CN1CC[C@]23c4c5ccc(O)c4O[C@H]2[C@@H](OCCCCCCCCCCCC(=O)N[C@H](CCCNC(=N)N)C(=O)N[C@@H](CCCNC(=N)N)C(=O)N2CCC[C@H]2C(=O)N2C[C@H](O)C[C@H]2C(=O)NCC(=O)N[C@@H](Cc2cccs2)C(=O)N[C@@H](CO)C(=O)N2Cc4ccccc4C[C@@H]2C(=O)N(CC(=O)N[C@@H](CCCNC(=N)N)C(=O)O)C2CCCCC2)CC[C@H]3[C@H]1C5 [CP 896] was run?
The IC50 was 2 nM.

Which IC50 [1] does the source give for CN1CC[C@]23c4c5ccc(O)c4O[C@H]2[C@@H](OCCCCCC(=O)N[C@H](CCCNC(=N)N)C(=O)N[C@@H](CCCNC(=N)N)C(=O)N2CCC[C@H]2C(=O)N2C[C@H](O)C[C@H]2C(=O)NCC(=O)N[C@@H](Cc2cccs2)C(=O)N[C@@H](CO)C(=O)N2Cc4ccccc4C[C@@H]2C(=O)N(CC(=O)N[C@@H](CCCNC(=N)N)C(=O)O)C2CCCCC2)CC[C@H]3[C@H]1C5 [CP 900] here?
The IC50 was 1.58 nM.

How did the IC50 [1] turn out when CN1CC[C@]23c4c5ccc(O)c4O[C@H]2[C@@H](OCCCc2cccc(C(=O)N[C@H](CCCNC(=N)N)C(=O)N[C@@H](CCCNC(=N)N)C(=O)N4CCC[C@H]4C(=O)N4C[C@H](O)C[C@H]4C(=O)NCC(=O)N[C@@H](Cc4cccs4)C(=O)N[C@@H](CO)C(=O)N4Cc6ccccc6C[C@@H]4C(=O)N(CC(=O)N[C@@H](CCCNC(=N)N)C(=O)O)C4CCCCC4)c2)C=C[C@H]3[C@H]1C5 [CP 902] was run?
The IC50 was 0.398 nM.

CN1CC[C@]23c4c5ccc(O)c4O[C@H]2[C@@H](OCCCc2ccc(C(=O)N[C@H](CCCNC(=N)N)C(=O)N[C@@H](CCCNC(=N)N)C(=O)N4CCC[C@H]4C(=O)N4C[C@H](O)C[C@H]4C(=O)NCC(=O)N[C@@H](Cc4cccs4)C(=O)N[C@@H](CO)C(=O)N4Cc6ccccc6C[C@@H]4C(=O)N(CC(=O)N[C@@H](CCCNC(=N)N)C(=O)O)C4CCCCC4)cc2)C=C[C@H]3[C@H]1C5 [CP 905] was tested. Which IC50 [1] did it give?
The IC50 was 0.501 nM.

For CN1CC[C@]23c4c5ccc(O)c4O[C@H]2[C@@H](OCc2ccc(C(=O)N[C@H](CCCNC(=N)N)C(=O)N[C@@H](CCCNC(=N)N)C(=O)N4CCC[C@H]4C(=O)N4C[C@H](O)C[C@H]4C(=O)NCC(=O)N[C@@H](Cc4cccs4)C(=O)N[C@@H](CO)C(=O)N4Cc6ccccc6C[C@@H]4C(=O)N(CC(=O)N[C@@H](CCCNC(=N)N)C(=O)O)C4CCCCC4)cc2)C=C[C@H]3[C@H]1C5 [CP 906], which IC50 [1] is on record?
The IC50 was 0.501 nM.

With “D-Arg-Arg-Pro-Hyp-Gly-Thi-Ser-D-Tic-NChg-Arg [CP-0597]” as the compound, how does the “effect on first and second phase responses (paw licking time)” value [2] read?
Its value is “no significant effect”.

And the “Percentage inhibition of the carrageenan paw edema, 3 h” value [3]?
The value was 66.3.

And the “Percentage inhibition of the carrageenan paw edema, 6 h” value [3]?
The value was 0.

And the “effect on carrageenan edema response” value ([3]; sc)?
The value was “significant inhibition from 0-3 h”.

What about the “effect on mustard oil edema response (Evan's blue dye)” value [4] of the same compound?
Its value is “without effect”.

What about the “duration of action against blood pressure responses to bradykinin” value [5] of the same compound?
The value was “greater than 6 h”.
